Data on seven molecules can be found in article PMC9411207, “Designed peptides as nanomolar cross-amyloid inhibitors acting via supramolecular nanofiber co-assembly” (Nature Communications, 2022).

Where two headings read alike, the source gives them in different places. Square brackets hold non-standard residues; d marks the D form. Peptide text beside a SMILES is read from it. NMeF = CN[C@@H](Cc1ccccc1)C(=O)O; NMeL = CN[C@@H](CC(C)C)C(=O)O; NMeV = CN[C@H](C(=O)O)C(C)C; Nle = CCCC[C@H](N)C(=O)O

As usually defined, the IC50 is the concentration at which inhibition is half-maximal.

In one series the test system is RIN5fm cells. Kind of series: MTT reduction assay: effects of peptides on formation of cell-damaging IAPP assemblies (incl. IC50 titrations). In kind it is cell-based, rat. As to conditions: for IC50: 24 h; for effect on IAPP cytotoxicity (in words): MTT reduction in RIN5fm cells, solutions of the ThT assay. How it is done: Briefly, cells were cultivated and platted in 96-well plates as described in ref. [68]. Aliquots of solutions used for the ThT binding assays (see “ThT binding assays”) were diluted with cell medium at the indicated incubation time points (24 h or 7 days) and added to the cells at the indicated final concentrations. Following incubation with the cells for ~20 h (37 °C, humidified atmosphere, 5% CO2), cell damage was assessed by measuring cellular MTT reduction as described[32],[68]. IC50 values were determined as described[20],[21],[32].

Series [1] addresses T1, N-terminal fluorescein-labeled IAPP (Homo sapiens, UniProt P10997).
T1 construct: made in house; host or cells: chemical synthesis (Fmoc-SPPS)
T1 sequence (P10997 34-70 limits assumed): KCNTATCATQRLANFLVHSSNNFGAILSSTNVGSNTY
Briefly: Fluorescence spectroscopic titration of Fluos-IAPP with ACMs. In kind it is binding. On the procedure: (§1) Fluorescence spectroscopic studies were performed with a Jasco FP-6500 fluorescence spectrophotometer (software: Spectra Manager V1.54.03 (Build 1)) using previously established protocols[12],[20],[25],[26],[32]. Briefly, excitation was at 492 nm and spectra were measured between 500 and 600 nm. All titrations were performed in freshly made solutions of synthetic N-terminal fluorescently-labeled peptide (5 nM) and various amounts of unlabeled peptide in 10 mM sodium phosphate buffer, pH 7.4 (1% HFIP) within 2–5 min following solution preparation as described in refs. [20], [25], [26]. Under these experimental conditions, freshly made solutions of Fluos-IAPP and FITC-Aβ42 (5 nM) consist mostly of monomers[25],[26],[32] and the same was found for Fluos-ACMs (5 nM) (e.g., Supplementary Fig. 5e). Apparent binding affinities (app. KDs) were estimated by using 1/1 binding models (software: OriginPro 2016G, Origin 2021, and GraFit (v.5)) as described in refs. [20], [25], [26], [32]. However, due to the high self-assembly propensities of involved peptides, more complex models might also apply. Determined app. KDs are means (±SD) from three binding curves derived from three independent titration assays.

Series [2] concerns the target T2, N-terminal FITC-labeled Aβ42 (Homo sapiens, UniProt P05067).
T2 construct: the 40(42)-residue peptide Aβ40(42); purchased Bachem
Kind of series: Fluorescence spectroscopic titration of FITC-Aβ42 with ACMs. The class given is binding. How it is done: as §1

The subject of another series is PC12 cells. Kind of series: MTT reduction assay: cytotoxicity of preformed (TAMRA-)Aβ42 oligomers with or without Nle3-VF. In kind it is cell-based. To be noted: TAMRA-oAb42 (2 h); mean, n = 4. On the procedure: Preformed (TAMRA-)oAβ42 and their mixtures with Nle3-VF were then incubated for an additional 2 h (37 °C, shaking 500 rpm; conditions as for the ThT binding assay). Incubation with the cells and the MTT reduction assay were performed as above. Statistical analysis (Supplementary Fig. 27d) was performed by one-way ANOVA and Bonferroni (software: OriginPro 2021).

The mark [3] stands for this setting: SF 6, Mean values of the 3 curves, read-out: App. Kd.
Where [4] appears, read: titration of Fluos-IAPP (5 nM; pH 7.4, 10 mM sodium phosphate, 1% HFIP) with ACMs, 1/1 binding model, means (±SD) from three binding curves.
[5] abbreviates: Table 2, mean values of the 3 curves, read-out: App. Kd.
Where [6] appears, read: app. KD (±SD) of ACM/Aβ42 interactions, titration of FITC-Aβ42 (5 nM; pH 7.4) with ACMs, means (±SD) from three binding curves.

T2 sequence (P05067 672-713 limits assumed): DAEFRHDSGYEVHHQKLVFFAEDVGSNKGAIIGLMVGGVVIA

Turning to `CCCC[C@H](NC(=O)[C@H](CC(C)C)NC(=O)CNC(=O)[C@@H](NC(=O)[C@@H](NC(=O)[C@H](C)NC(=O)CNC(=O)[C@H](CCCCN)NC(=O)[C@H](CC(N)=O)NC(=O)[C@H](Cc1ccccc1)NC(=O)[C@H](Cc1ccccc1)NC(=O)[C@H](Cc1ccccc1)NC(=O)[C@H](CC(=O)O)NC(=O)[C@H](CCC(=O)O)NC(=O)[C@H](C)NC(=O)[C@H](Cc1ccccc1)NC(=O)[C@H](Cc1ccccc1)N(C)C(=O)[C@@H](NC(=O)[C@H](CC(C)C)N(C)C(=O)[C@H](CCCCN)NC(=O)[C@@H](N)CCC(N)=O)C(C)C)[C@@H](C)CC)[C@@H](C)CC)C(=O)N[C@H](C(=O)NCC(=O)NCC(=O)N[C@H](C(=O)N[C@H](C(=O)O)C(C)C)C(C)C)C(C)C` [F3-LF] (H-QK[NMeL]V[NMeF]FAEDFFFNKGAIIGL[Nle]VGGVV-OH), the IC50 with RIN5fm cells came out at 41.7 nM. Further, the Kd in series [1] (setting [3]) came to 37.6 nM; in series [1] (setting [4]), 37.6 nM; in series [2] (setting [5]), 431 nM; in series [2] (setting [6]) it was 431 nM.
For `CCCC[C@H](NC(=O)[C@H](CC(=O)O)NC(=O)[C@H](CCC(=O)O)NC(=O)[C@H](C)NC(=O)[C@H](Cc1ccccc1)NC(=O)[C@H](Cc1ccccc1)N(C)C(=O)[C@@H](NC(=O)[C@H](CC(C)C)N(C)C(=O)[C@H](CCCCN)NC(=O)[C@@H](N)CCC(N)=O)C(C)C)C(=O)N[C@@H](CCCC)C(=O)N[C@@H](CCCC)C(=O)N[C@@H](CC(N)=O)C(=O)N[C@@H](CCCCN)C(=O)NCC(=O)N[C@@H](C)C(=O)N[C@H](C(=O)N[C@H](C(=O)NCC(=O)N[C@@H](CC(C)C)C(=O)N[C@@H](CCCC)C(=O)N[C@H](C(=O)NCC(=O)NCC(=O)N[C@H](C(=O)N[C@H](C(=O)O)C(C)C)C(C)C)C(C)C)[C@@H](C)CC)[C@@H](C)CC` [Nle3-LF] (H-QK[NMeL]V[NMeF]FAED[Nle][Nle][Nle]NKGAIIGL[Nle]VGGVV-OH), the IC50 in the series with RIN5fm cells stood at 82.1 nM. The “effect on IAPP cytotoxicity (in words)” value with RIN5fm cells is given as “fully suppressed”. The Kd in series [1] was determined as 55.4 nM; in series [1] (setting [3]) it was 55.4 nM; in series [2] (setting [5]), 11.1 nM; in series [2] (setting [6]) it was 11.1 nM.
Consider `CCCC[C@H](NC(=O)[C@H](CC(=O)O)NC(=O)[C@H](CCC(=O)O)NC(=O)[C@H](C)NC(=O)[C@H](Cc1ccccc1)N(C)C(=O)[C@H](Cc1ccccc1)NC(=O)[C@H](C(C)C)N(C)C(=O)[C@H](CC(C)C)NC(=O)[C@H](CCCCN)NC(=O)[C@@H](N)CCC(N)=O)C(=O)N[C@@H](CCCC)C(=O)N[C@@H](CCCC)C(=O)N[C@@H](CC(N)=O)C(=O)N[C@@H](CCCCN)C(=O)NCC(=O)N[C@@H](C)C(=O)N[C@H](C(=O)N[C@H](C(=O)NCC(=O)N[C@@H](CC(C)C)C(=O)N[C@@H](CCCC)C(=O)N[C@H](C(=O)NCC(=O)NCC(=O)N[C@H](C(=O)N[C@H](C(=O)O)C(C)C)C(C)C)C(C)C)[C@@H](C)CC)[C@@H](C)CC` [Nle3-VF] (H-QKL[NMeV]F[NMeF]AED[Nle][Nle][Nle]NKGAIIGL[Nle]VGGVV-OH), for which, in the series with RIN5fm cells, the IC50 was 65 nM. For the same molecule, the “effect on IAPP cytotoxicity (in words)” value in the series on RIN5fm cells is recorded as “fully suppressed”. In addition, the Kd in series [1] (Fig. 2a right panel, mean values of the 3 curves, read-out: App. Kd) stood at 69.5 nM; in series [2] (setting [6]), 14.5 nM; in series [2] (fluorescence titration, emission at 519 nm, Mean values of the 3 curves, read-out: App. Kd), 14.5 nM.
Molecule `CCCC[C@H](NC(=O)[C@H](CC(C)C)NC(=O)CNC(=O)[C@@H](NC(=O)[C@@H](NC(=O)[C@H](C)NC(=O)CNC(=O)[C@H](CCCCN)NC(=O)[C@H](CC(N)=O)NC(=O)[C@H](CC(C)C)NC(=O)[C@H](CC(C)C)NC(=O)[C@H](CC(C)C)NC(=O)[C@H](CC(=O)O)NC(=O)[C@H](CCC(=O)O)NC(=O)[C@H](C)NC(=O)[C@H](Cc1ccccc1)NC(=O)[C@H](Cc1ccccc1)N(C)C(=O)[C@@H](NC(=O)[C@H](CC(C)C)N(C)C(=O)[C@H](CCCCN)NC(=O)[C@@H](N)CCC(N)=O)C(C)C)[C@@H](C)CC)[C@@H](C)CC)C(=O)N[C@H](C(=O)NCC(=O)NCC(=O)N[C@H](C(=O)N[C@H](C(=O)O)C(C)C)C(C)C)C(C)C` [L3-LF] (H-QK[NMeL]V[NMeF]FAEDLLLNKGAIIGL[Nle]VGGVV-OH) returned an IC50 with RIN5fm cells of 133 nM. In the series on RIN5fm cells, the “effect on IAPP cytotoxicity (in words)” value is recorded as “fully suppressed”. Moreover, the Kd in series [1] (setting [3]) worked out at 143 nM; in series [2] (setting [5]) it was 2.64 nM.
For the molecule TAMRA-oAb42, the “MTT reduction (% control)” value in the series on PC12 cells came out at 66.7213 % control.
On to `CCCC[C@H](NC(=O)[C@H](CC(C)C)NC(=O)CNC(=O)[C@@H](NC(=O)[C@@H](NC(=O)[C@H](C)NC(=O)CNC(=O)[C@H](CCCCN)NC(=O)[C@H](CC(N)=O)NC(=O)[C@H](Cc1ccccc1)NC(=O)[C@H](Cc1ccccc1)NC(=O)[C@H](Cc1ccccc1)NC(=O)[C@H](CC(=O)O)NC(=O)[C@H](CCC(=O)O)NC(=O)[C@H](C)NC(=O)[C@H](Cc1ccccc1)N(C)C(=O)[C@H](Cc1ccccc1)NC(=O)[C@H](C(C)C)N(C)C(=O)[C@H](CC(C)C)NC(=O)[C@H](CCCCN)NC(=O)[C@@H](N)CCC(N)=O)[C@@H](C)CC)[C@@H](C)CC)C(=O)N[C@H](C(=O)NCC(=O)NCC(=O)N[C@H](C(=O)N[C@H](C(=O)O)C(C)C)C(C)C)C(C)C` [F3-VF] (H-QKL[NMeV]F[NMeF]AEDFFFNKGAIIGL[Nle]VGGVV-OH), for which half-maximal inhibition in the series on RIN5fm cells (IC50) was put at 78.5 nM. The Kd in series [1] (setting [3]) amounted to 15 nM; in series [1] (setting [4]), 15 nM; in series [2] (setting [5]), 161 nM; in series [2] (setting [6]), 161 nM.
`CCCC[C@H](NC(=O)[C@H](CC(C)C)NC(=O)CNC(=O)[C@@H](NC(=O)[C@@H](NC(=O)[C@H](C)NC(=O)CNC(=O)[C@H](CCCCN)NC(=O)[C@H](CC(N)=O)NC(=O)[C@H](CC(C)C)NC(=O)[C@H](CC(C)C)NC(=O)[C@H](CC(C)C)NC(=O)[C@H](CC(=O)O)NC(=O)[C@H](CCC(=O)O)NC(=O)[C@H](C)NC(=O)[C@H](Cc1ccccc1)N(C)C(=O)[C@H](Cc1ccccc1)NC(=O)[C@H](C(C)C)N(C)C(=O)[C@H](CC(C)C)NC(=O)[C@H](CCCCN)NC(=O)[C@@H](N)CCC(N)=O)[C@@H](C)CC)[C@@H](C)CC)C(=O)N[C@H](C(=O)NCC(=O)NCC(=O)N[C@H](C(=O)N[C@H](C(=O)O)C(C)C)C(C)C)C(C)C` [L3-VF] (H-QKL[NMeV]F[NMeF]AEDLLLNKGAIIGL[Nle]VGGVV-OH) had a 50% inhibitory concentration (IC50) in the series on RIN5fm cells of 112 nM. Besides, the Kd in series [1] (setting [3]) was 77.3 nM; in series [1] (setting [4]) it was 77.3 nM; in series [2] (setting [5]) it was 38 nM; in series [2] (setting [6]) it was 38 nM.
